Calls of active or inactive are those of the source. No cut-off for these calls is given here.
Key:
MCF7 [1] = experiment: Induction of apoptosis in human MCF7 cells assessed as late apoptotic cells at 7.5 uM measured after 48 hrs by Annexin V and dead cell kit analysis (reference value: 1.45%); format: functional
PANC-1 [2] = experiment: Induction of apoptosis in human PANC-1 cells assessed as viable cells at 5 uM measured after 48 hrs by Annexin V and dead cell kit analysis (reference value: 85.6%); format: functional; settings: read-out: Activity
PANC-1 [3] = experiment: Induction of apoptosis in human PANC-1 cells assessed as viable cells at 7.5 uM measured after 48 hrs by Annexin V and dead cell kit analysis (reference value: 85.6%); format: functional; settings: read-out: Activity
K562 = experiment: Cytotoxicity against human K562 cells assessed as reduction in cell viability measured after 72 hrs by MTS assay; format: functional, cell-based; settings: K562, 72 h
U-251 = experiment: Cytotoxicity against human U-251 cells assessed as reduction in cell viability measured after 72 hrs by MTS assay; format: functional, cell-based; settings: U-251, 72 h
PANC-1 [4] = experiment: Cell cycle arrest in human PANC-1 cells assessed as accumulation at G0/G1-phase at 2.5 uM measured after 24 hrs by muse cell analyser (reference value: 48.28 to 48.7%); format: functional
MCF7 [5] = experiment: Cell cycle arrest in human MCF7 cells assessed as accumulation at S-phase at 5 uM measured after 24 hrs by muse cell analyser (reference value: 9.9 to 11.66%); format: functional
PANC-1 [6] = experiment: Induction of apoptosis in human PANC-1 cells assessed as early apoptotic cells at 7.5 uM measured after 48 hrs by Annexin V and dead cell kit analysis (reference value: 10.95%); format: functional
MCF7 [7] = experiment: Down regulation of p21 expression in human MCF7 cells at 5 uM measured after 24 hrs by Western blot analysis; format: functional, cell-based
MCF7 [8] = experiment: Induction of apoptosis in human MCF7 cells assessed as necrotic cells at 5 uM measured after 48 hrs by Annexin V and dead cell kit analysis (reference value: 0.5%); format: functional
HCT-116 = experiment: Cytotoxicity against human HCT-116 cells assessed as reduction in cell viability measured after 72 hrs by MTS assay; format: functional, cell-based; settings: HCT-116, 72 h
PANC-1 [9] = experiment: Cell cycle arrest in human PANC-1 cells assessed as accumulation at G2/M-phase at 7.5 uM measured after 24 hrs by muse cell analyser (reference value: 36.3 to 36.88%); format: functional
MCF7 [10] = experiment: Induction of apoptosis in human MCF7 cells assessed as early apoptotic cells at 7.5 uM measured after 48 hrs by Annexin V and dead cell kit analysis (reference value: 0.65%); format: functional
MCF7 [11] = experiment: Induction of apoptosis in human MCF7 cells assessed as late apoptotic cells at 5 uM measured after 48 hrs by Annexin V and dead cell kit analysis (reference value: 1.45%); format: functional
PANC-1 [12] = experiment: Cytotoxicity against human PANC-1 cells assessed as reduction in cell viability measured after 72 hrs by MTS assay; format: functional, cell-based; settings: PANC-1, 72 h
MCF7 [13] = experiment: Induction of apoptosis in human MCF7 cells assessed as early apoptotic cells at 5 uM measured after 48 hrs by Annexin V and dead cell kit analysis (reference value: 0.65%); format: functional
MCF7 [14] = experiment: Induction of apoptosis in human MCF7 cells assessed as viable cells at 5 uM measured after 48 hrs by Annexin V and dead cell kit analysis (reference value: 97.4%); format: functional; settings: read-out: Activity
PANC-1 [15] = experiment: Down regulation of cyclin E1 expression in human PANC-1 cells at 0.5 to 5 uM measured after 24 hrs by Western blot analysis; format: functional, cell-based; settings: dose 0.5-5 µM
PANC-1 [16] = experiment: Induction of apoptosis in human PANC-1 cells measured after 48 hrs by Annexin V and dead cell kit analysis; format: functional, cell-based; settings: dose 5-7.5 µM
PANC-1 [17] = experiment: Cell cycle arrest in human PANC-1 cells assessed as accumulation at G2/M-phase at 2.5 uM measured after 24 hrs by muse cell analyser (reference value: 36.3 to 36.88%); format: functional
PANC-1 [18] = experiment: Induction of autophagy in human PANC-1 cells assessed as increase in LC3 expression at 1 uM measured after 24 hrs by muse cell analyzer based fluorescence assay relative to control; format: functional
PANC-1 [19] = experiment: Induction of apoptosis in human PANC-1 cells assessed as late apoptotic cells at 7.5 uM measured after 48 hrs by Annexin V and dead cell kit analysis (reference value: 2.4%); format: functional
PANC-1 [20] = experiment: Cell cycle arrest in human PANC-1 cells assessed as accumulation at G2/M-phase at 5 uM measured after 24 hrs by muse cell analyser (reference value: 36.3 to 36.88%); format: functional
PANC-1 [21] = experiment: Cell cycle arrest in human PANC-1 cells assessed as accumulation at S-phase at 5 uM measured after 24 hrs by muse cell analyser (reference value: 14.3 to 14.9%); format: functional
NHDF = experiment: Cytotoxicity against NHDF cells assessed as reduction in cell viability measured after 72 hrs by MTS assay; format: cell-based; settings: Homo sapiens
[22] = Up regulation of HIF1 expression in human MCF7 cells at 1 to 5 uM measured after 24 hrs by Western blot analysis relative to control; format: functional; settings: dose 1-5 µM
MCF7 [23] = experiment: Cell cycle arrest in human MCF7 cells assessed as accumulation at G0/G1-phase at 5 uM measured after 24 hrs by muse cell analyser (reference value: 52.65 to 53.3%); format: functional
PANC-1 [24] = experiment: Induction of apoptosis in human PANC-1 cells assessed as late apoptotic cells at 5 uM measured after 48 hrs by Annexin V and dead cell kit analysis (reference value: 2.4%); format: functional
PANC-1 [25] = experiment: Cell cycle arrest in human PANC-1 cells assessed as accumulation at G0/G1-phase at 5 uM measured after 24 hrs by muse cell analyser (reference value: 48.28 to 48.7%); format: functional
MCF7 [26] = experiment: Cell cycle arrest in human MCF7 cells assessed as accumulation at G0/G1-phase at 7.5 uM measured after 24 hrs by muse cell analyser (reference value: 52.65 to 53.3%); format: functional
PANC-1 [27] = experiment: Cell cycle arrest in human PANC-1 cells assessed as accumulation at G0/G1-phase at 7.5 uM measured after 24 hrs by muse cell analyser (reference value: 48.28 to 48.7%); format: functional
MCF7 [28] = experiment: Induction of apoptosis in human MCF7 cells assessed as necrotic cells at 7.5 uM measured after 48 hrs by Annexin V and dead cell kit analysis (reference value: 0.5%); format: functional
MCF7 [29] = experiment: Cell cycle arrest in human MCF7 cells assessed as accumulation at G2/M-phase at 7.5 uM measured after 24 hrs by muse cell analyser (reference value: 30.92 to 33.6%); format: functional
PANC-1 [30] = experiment: Induction of apoptosis in human PANC-1 cells assessed as necrotic cells at 7.5 uM measured after 48 hrs by Annexin V and dead cell kit analysis (reference value: 1.05%); format: functional
DNA = experiment: Induction of Escherichia coli supercoiled pUC19 plasmid DNA cleavage assessed as increase in open circular form of a plasmid at 25 uM incubated for 60 mins by agarose gel electrophoresis analysis; format: nucleic-acid assay
MCF7 [31] = experiment: Up regulation of p53 expression in human MCF7 cells at 1 to 5 uM measured after 24 hrs by Western blot analysis; format: functional, cell-based; settings: dose 1-5 µM
MCF7 [32] = experiment: Cytotoxicity against human MCF7 cells assessed as reduction in cell viability measured after 72 hrs by MTS assay; format: functional, cell-based; settings: MCF7, 72 h
MCF7 [33] = experiment: Induction of reactive oxygen species generation in human MCF7 cells at 1 uM measured after 24 hrs by cellrox-green reagent based assay relative to control; format: functional

c1ccc(-c2cn(-c3ccc(-c4cc(-c5ccccn5)nc(-c5ccccn5)c4)cc3)nn2)nc1
Activity (MCF7 [1]): 17.45%
viability at 5 µM (PANC-1 [2]): 48.8%
viability at 7.5 µM (PANC-1 [3]): 39%
IC50 (K562): 916 nM
IC50 (U-251): 855 nM
Activity (PANC-1 [4]): 53.98%
Activity (MCF7 [5]): 12.1%
Activity (PANC-1 [6]): 54.6%
Activity (MCF7 [7]): Active
Activity (MCF7 [8]): 10.9%
IC50 (HCT-116): 243 nM
Activity (PANC-1 [9]): 31%
Activity (MCF7 [10]): 28.2%
Activity (MCF7 [11]): 11.4%
IC50 (PANC-1 [12]): 114 nM
Activity (MCF7 [13]): 10.6%
viability at 5 µM (MCF7 [14]): 67.1%
Activity (PANC-1 [15]): inactive
Activity (PANC-1 [16]): Dose-dependent effect
Activity (PANC-1 [17]): 30.2%
fold change (FC) (PANC-1 [18]): 2.2
Activity (PANC-1 [19]): 4.55%
Activity (PANC-1 [20]): 35.25%
Activity (PANC-1 [21]): 7.3%
IC50 (NHDF): > 25000 nM
fold change (FC) [22]: 45
Activity (MCF7 [23]): 55.97%
Activity (PANC-1 [24]): 8.75%
Activity (PANC-1 [25]): 55.1%
Activity (MCF7 [26]): 60.4%
Activity (PANC-1 [27]): 58.75%
Activity (MCF7 [28]): 4.15%
Activity (MCF7 [29]): 22%
Activity (PANC-1 [30]): 1.8%
Activity (DNA): Active
Activity (MCF7 [31]): inactive
IC50 (MCF7 [32]): 407 nM
Activity (MCF7 [33]): >150%
